The record followed here is article PMC7723077, “Spatial Profiles of Phosphate in Roots Indicate Developmental Control of Uptake, Recycling, and Sequestration” (Plant Physiology, 2020).

SMILES strings stand for the structures.

Broadly, the Kd is a measure of binding affinity in units of concentration. High values mean a looser complex, low ones a tighter complex.

The target of this assay is T1, cpFLIPPi-5.3m.
T1 construct: gene PiBP
Conditions: in vivo, root epidermal cells of transition zone; injection buffer 50 mM MOPS-KOH pH 7.3, 0.5 mM MgCl2, total K+ 75 mM.

`O=P(O)(O)O` [Pi, inorganic phosphate] came in with a Kd of 7.4 ± 1.7 mM.
